Publication PMC6976587, “Conversion of Broad-Spectrum Antimicrobial Peptides into Species-Specific Antimicrobials Capable of Precisely Targeting Pathogenic Bacteria” (Scientific Reports, 2020)
Converted amounts (≈) assume the structure as drawn. Residues, ends and D or L forms follow the SMILES beside them.

Legend:
S. Pullorum C7913 = type: cell-based, Salmonella Pullorum; details: C7913, 16 h
Method: (§1) The antimicrobial activities of the peptides were investigated against the following bacteria: E. faecalis ATCC 29212, S. epidermidis ATCC 12228, S. aureus ATCC 29213, E. coli ATCC 25922, S. typhimurium […] and S. Pullorum […]. The MICs of the peptides were determined using a modified standard microtiter dilution method as described previously[29],[38]. Briefly, the microbial strains were cultured in MHB at 37 °C to reach mid-log phase and then diluted to 0.5-1×10^6 CFU/ml. 50 μL volumes of bacteria suspension were incubated in sterile 96-well plates with 50 μl of 2-fold serially diluted peptides at different concentrations (0.25-128 μM). Cultures with or without bacterial cells was employed as positive and negative controls, respectively. […] Each measurement was reproduced at least four times using three replicates.

S. typhimurium C7731 = type: cell-based, Salmonella typhimurium; details: C7731, 16 h
Method: as §1

S. aureus ATCC 29213 = type: cell-based, Staphylococcus aureus; details: ATCC 29213, 16 h
Method: as §1

[1] = tested on: S. epidermidis ATCC 12228; type: cell-based, Staphylococcus epidermidis; details: ATCC 12228, 16 h
Method: as §1

E. coli ATCC 25922 = type: cell-based, Escherichia coli; details: ATCC 25922, 16 h
Method: as §1

E. faecalis ATCC 29212 = type: cell-based, Enterococcus faecalis; details: ATCC 29212, 16 h
Method: as §1

[2] = tested on: panel of microbes (Gram-negative and Gram-positive bacteria); type: cell-based; details: 16 h
Method: as §1

| MIC (μM) Gram-negative S. Pullorum 43300 (S. Pullorum C7913) [µM] | MIC (μM) Gram-negative S. typhimurium 29213 (S. typhimurium C7731) [µM] | MIC (μM) Gram-positive S. aureus 1005 (S. aureus ATCC 29213) [µM] | MIC (μM) Gram-positive S. epidermidis 7913 [1] [µM] | MIC (μM) Gram-negative E. coli 12228 (E. coli ATCC 25922) [µM] | MIC (μM) Gram-positive E. faecalis 25922 (E. faecalis ATCC 29212) [µM] | MICs against the panel of microbes (range) [2] [µM] | Structure (SMILES) |
| --- | --- | --- | --- | --- | --- | --- | --- |
| 8 (≈ 16.6 µg/mL) | 32 (≈ 66.4 µg/mL) | 32 (≈ 66.4 µg/mL) | 32 (≈ 66.4 µg/mL) | 2 (≈ 4.15 µg/mL) | 64 (≈ 133 µg/mL) | – | NCCCC[C@H](NC(=O)CNC(=O)[C@H](CC(N)=O)NC(=O)[C@H](CCC(=O)O)NC(=O)[C@H](Cc1c[nH]c2ccccc12)NC(=O)[C@H](CCCCN)NC(=O)[C@H](Cc1c[nH]c2ccccc12)NC(=O)[C@H](CCCCN)NC(=O)[C@@H](N)Cc1c[nH]c2ccccc12)C(=O)N[C@@H](Cc1c[nH]c2ccccc12)C(=O)N[C@@H](CCCCN)C(=O)N[C@@H](Cc1c[nH]c2ccccc12)C(=O)N[C@@H](CCCCN)C(=O)N[C@@H](Cc1c[nH]c2ccccc12)C(=O)O [C4] (H-WKWKWENGKWKWKW-OH) |
| >128 | >128 | >128 | >128 | 32 (≈ 99 µg/mL) | >128 | – | CC[C@H](C)[C@H](NC(=O)[C@H](Cc1ccccc1)NC(=O)[C@H](CS)NC(=O)[C@@H](NC(=O)[C@H](CO)NC(=O)[C@@H](N)Cc1ccc(O)cc1)[C@@H](C)O)C(=O)N[C@@H](CCSC)C(=O)NCC(=O)NCC(=O)NCC(=O)N[C@@H](Cc1c[nH]c2ccccc12)C(=O)N[C@@H](CCCCN)C(=O)N[C@@H](Cc1c[nH]c2ccccc12)C(=O)N[C@@H](CCCCN)C(=O)N[C@@H](Cc1c[nH]c2ccccc12)C(=O)N[C@@H](CCC(=O)O)C(=O)N[C@@H](CC(N)=O)C(=O)NCC(=O)N[C@@H](CCCCN)C(=O)N[C@@H](Cc1c[nH]c2ccccc12)C(=O)N[C@@H](CCCCN)C(=O)N[C@@H](Cc1c[nH]c2ccccc12)C(=O)N[C@@H](CCCCN)C(=O)N[C@@H](Cc1c[nH]c2ccccc12)C(=O)O [random-C4] (H-YSTCFIMGGGWKWKWENGKWKWKW-OH) |
| 8 (≈ 17.2 µg/mL) | 8 (≈ 17.2 µg/mL) | 8 (≈ 17.2 µg/mL) | 16 (≈ 34.5 µg/mL) | 2 (≈ 4.31 µg/mL) | 4 (≈ 8.62 µg/mL) | – | CC(C)C[C@H](NC(=O)[C@H](CCCNC(=N)N)NC(=O)CNC(=O)CNC(=O)[C@@H](N)CCCNC(=N)N)C(=O)N[C@H]1CSSC[C@@H](C(=O)N[C@H](C(=O)NCC(=O)N[C@@H](CCCNC(=N)N)C(N)=O)C(C)C)NC(=O)[C@H](C(C)C)NC(=O)[C@@H]2CSSC[C@H](NC(=O)[C@H](Cc3ccc(O)cc3)NC1=O)C(=O)N[C@@H](CCCNC(=N)N)C(=O)N[C@@H](CCCNC(=N)N)C(=O)N[C@@H](CCCNC(=N)N)C(=O)N[C@@H](Cc1ccccc1)C(=O)N2 [PG-1, reference compound] |
| 8 (≈ 24.1 µg/mL) | >128 | 8 (≈ 24.1 µg/mL) | 32 (≈ 96.6 µg/mL) | 2 (≈ 6.04 µg/mL) | 16 (≈ 48.3 µg/mL) | – | CC(C)C[C@H](NC(=O)CNC(=O)CNC(=O)CNC(=O)[C@H](Cc1c[nH]c2ccccc12)NC(=O)[C@H](CCCCN)NC(=O)[C@H](Cc1c[nH]c2ccccc12)NC(=O)[C@H](CCCCN)NC(=O)[C@H](Cc1c[nH]c2ccccc12)NC(=O)[C@H](CCCCN)NC(=O)CNC(=O)[C@H](CC(N)=O)NC(=O)[C@H](CCCCN)NC(=O)[C@H](Cc1c[nH]c2ccccc12)NC(=O)[C@H](CCCCN)NC(=O)[C@H](Cc1c[nH]c2ccccc12)NC(=O)[C@H](CCCCN)NC(=O)[C@@H](N)Cc1c[nH]c2ccccc12)C(=O)N[C@H](C(=O)N[C@H](C(=O)N[C@@H](CC(C)C)C(=O)N[C@H](C(=O)N[C@@H](Cc1ccccc1)C(=O)N[C@H](C(=O)O)C(C)C)C(C)C)[C@@H](C)O)C(C)C [C6-cCF10] (H-WKWKWKNGKWKWKWGGGLVTLVFV-OH) |
| >128 | >128 | >128 | >128 | >128 | >128 | – | CC(C)C[C@H](NC(=O)[C@@H](NC(=O)[C@@H](NC(=O)[C@@H](N)CC(C)C)C(C)C)[C@@H](C)O)C(=O)N[C@H](C(=O)N[C@@H](Cc1ccccc1)C(=O)N[C@H](C(=O)NCC(=O)NCC(=O)NCC(=O)N[C@@H](Cc1c[nH]c2ccccc12)C(=O)N[C@@H](CCCCN)C(=O)N[C@@H](Cc1c[nH]c2ccccc12)C(=O)N[C@@H](CCCCN)C(=O)N[C@@H](Cc1c[nH]c2ccccc12)C(=O)N[C@@H](CCC(=O)O)C(=O)N[C@@H](CC(N)=O)C(=O)NCC(=O)N[C@@H](CCCCN)C(=O)N[C@@H](Cc1c[nH]c2ccccc12)C(=O)N[C@@H](CCCCN)C(=O)N[C@@H](Cc1c[nH]c2ccccc12)C(=O)N[C@@H](CCC(N)=O)C(=O)N[C@@H](Cc1c[nH]c2ccccc12)C(=O)O)C(C)C)C(C)C [cCF10-C3] (H-LVTLVFVGGGWKWKWENGKWKWQW-OH) |
| 16 (≈ 48.3 µg/mL) | >128 | 32 (≈ 96.6 µg/mL) | 32 (≈ 96.6 µg/mL) | 4 (≈ 12.1 µg/mL) | 4 (≈ 12.1 µg/mL) | – | CC(C)C[C@H](NC(=O)[C@@H](NC(=O)[C@@H](NC(=O)[C@@H](N)CC(C)C)C(C)C)[C@@H](C)O)C(=O)N[C@H](C(=O)N[C@@H](Cc1ccccc1)C(=O)N[C@H](C(=O)NCC(=O)NCC(=O)NCC(=O)N[C@@H](Cc1c[nH]c2ccccc12)C(=O)N[C@@H](CCCCN)C(=O)N[C@@H](Cc1c[nH]c2ccccc12)C(=O)N[C@@H](CCCCN)C(=O)N[C@@H](Cc1c[nH]c2ccccc12)C(=O)N[C@@H](CCCCN)C(=O)N[C@@H](CC(N)=O)C(=O)NCC(=O)N[C@@H](CCCCN)C(=O)N[C@@H](Cc1c[nH]c2ccccc12)C(=O)N[C@@H](CCCCN)C(=O)N[C@@H](Cc1c[nH]c2ccccc12)C(=O)N[C@@H](CCCCN)C(=O)N[C@@H](Cc1c[nH]c2ccccc12)C(=O)O)C(C)C)C(C)C [cCF10-C6] (H-LVTLVFVGGGWKWKWKNGKWKWKW-OH) |
| 16 (≈ 33.2 µg/mL) | 64 (≈ 133 µg/mL) | >128 | >128 | 32 (≈ 66.4 µg/mL) | >128 | – | NCCCC[C@H](NC(=O)CNC(=O)[C@H](CC(N)=O)NC(=O)[C@H](CCC(=O)O)NC(=O)[C@H](Cc1c[nH]c2ccccc12)NC(=O)[C@H](CCCCN)NC(=O)[C@H](Cc1c[nH]c2ccccc12)NC(=O)[C@H](CCCCN)NC(=O)[C@@H](N)Cc1c[nH]c2ccccc12)C(=O)N[C@@H](Cc1c[nH]c2ccccc12)C(=O)N[C@@H](CCCCN)C(=O)N[C@@H](Cc1c[nH]c2ccccc12)C(=O)N[C@@H](CCC(N)=O)C(=O)N[C@@H](Cc1c[nH]c2ccccc12)C(=O)O [C3] (H-WKWKWENGKWKWQW-OH) |
| >128 | >128 | >128 | >128 | 64 (≈ 193 µg/mL) | 8 (≈ 24.2 µg/mL) | – | CC(C)C[C@H](NC(=O)[C@@H](NC(=O)[C@@H](NC(=O)[C@@H](N)CC(C)C)C(C)C)[C@@H](C)O)C(=O)N[C@H](C(=O)N[C@@H](Cc1ccccc1)C(=O)N[C@H](C(=O)NCC(=O)NCC(=O)NCC(=O)N[C@@H](Cc1c[nH]c2ccccc12)C(=O)N[C@@H](CCCCN)C(=O)N[C@@H](Cc1c[nH]c2ccccc12)C(=O)N[C@@H](CCCCN)C(=O)N[C@@H](Cc1c[nH]c2ccccc12)C(=O)N[C@@H](CCC(=O)O)C(=O)N[C@@H](CC(N)=O)C(=O)NCC(=O)N[C@@H](CCCCN)C(=O)N[C@@H](Cc1c[nH]c2ccccc12)C(=O)N[C@@H](CCCCN)C(=O)N[C@@H](Cc1c[nH]c2ccccc12)C(=O)N[C@@H](CCCCN)C(=O)N[C@@H](Cc1c[nH]c2ccccc12)C(=O)O)C(C)C)C(C)C [cCF10-C4] (H-LVTLVFVGGGWKWKWENGKWKWKW-OH) |
| >128 | >128 | >128 | >128 | >128 | >128 | – | CC(C)C[C@H](NC(=O)[C@@H](NC(=O)[C@@H](NC(=O)[C@@H](N)CC(C)C)C(C)C)[C@@H](C)O)C(=O)N[C@H](C(=O)N[C@@H](Cc1ccccc1)C(=O)N[C@H](C(=O)O)C(C)C)C(C)C [cCF10, reference compound] (H-LVTLVFV-OH) |
| 4 (≈ 8.3 µg/mL) | 8 (≈ 16.6 µg/mL) | 4 (≈ 8.3 µg/mL) | 8 (≈ 16.6 µg/mL) | 2 (≈ 4.15 µg/mL) | 16 (≈ 33.2 µg/mL) | 2 to 16 | NCCCC[C@H](NC(=O)CNC(=O)[C@H](CC(N)=O)NC(=O)[C@H](CCCCN)NC(=O)[C@H](Cc1c[nH]c2ccccc12)NC(=O)[C@H](CCCCN)NC(=O)[C@H](Cc1c[nH]c2ccccc12)NC(=O)[C@H](CCCCN)NC(=O)[C@@H](N)Cc1c[nH]c2ccccc12)C(=O)N[C@@H](Cc1c[nH]c2ccccc12)C(=O)N[C@@H](CCCCN)C(=O)N[C@@H](Cc1c[nH]c2ccccc12)C(=O)N[C@@H](CCCCN)C(=O)N[C@@H](Cc1c[nH]c2ccccc12)C(=O)O [C6] (H-WKWKWKNGKWKWKW-OH) |
